Test results taken from PMC9859815 (Scientific Reports, 2023).
Like-named read-outs stand apart in the source and are kept apart here.

Assays:
[1] = Pakistani, cited from earlier work
[2] = cited from earlier work
[3] = Single-dose, 2-sequence, 2-period crossover pharmacokinetic/bioequivalence study, fasting oral administration, healthy Chinese subjects (also by CYP2C19 phenotype and gender); type: in vivo; details: human, plasma, mean ± SD
Experimental: Forty subjects were randomly divided into two groups, with 20 patients in each group. […] The subjects in each group fasted after 21:00 the night before administration. […] The blood samples were centrifuged at 1700 g (4 °C) for 10 min within 1 h of collection. The centrifuged plasma was immediately aliquoted into 2 tubes with corresponding labels (1 for testing, 1 for backup, the volume of plasma in each tube should not be less than 500 µL) and stored at […] until analysis. The total time from whole blood collection to centrifugation to separate plasma and then stored in […] refrigerator should not exceed 2 h.
The sample pretreatment method was the protein precipitation method.
Terminal elimination rate constant λz and the apparent terminal elimination half-life (T1/2) were also needed. AUC0–∞ (the AUC from time 0 to infinity) used the formula: AUC0–∞ = AUC0–t + Ct/λ(T1/2 = 0.693/λz) to calculate.
SAS 9.4 software was used for statistical analysis.

- AUC(0-t) ([3]; CYP2C19 EM (N = 12)): 553 ± 391 ng·h/mL
- half-life ([3]; CYP2C19 PM (N = 4)): 149 ± 14.4 min
SMILES: COc1ccc2[nH]c([S+]([O-])Cc3ncc(C)c(OC)c3C)nc2c1 (centres unmarked) [omeprazole]
- AUC0–t ([1]; females): 8.74 ± 2.23 µg·h/mL
- Cmax ([1]; females): 2.913 ± 0.61 µg/mL
- AUC0–t ([1]; males): 6.67 ± 4.32 µg·h/mL
- Cmax ([1]; males): 2.006 ± 0.98 µg/mL
- Cmax ([2]; CYP2C19 EM, Caucasians): 285 ± 82.9 ng/mL
- T1/2 ([2]; CYP2C19 EM, Caucasians): 0.71 ± 0.1 h
- AUC0–t ([2]; CYP2C19 EM, Japanese): 618.3 ± 141.9 ng·h/mL
- Cmax ([2]; CYP2C19 EM, Japanese): 251.1 ± 46.2 ng/mL
- AUC0–t ([2]; CYP2C19 EM, Korean): 713.49 ± 555.56 ng·h/mL
- AUC0–t ([2]; CYP2C19 EM, West Asian): 250.5 ± 16.1 ng·h/mL
- Cmax ([2]; CYP2C19 EM, West Asians): 152.4 ± 9.94 ng/mL
- T1/2 ([2]; CYP2C19 EM, West Asians): 0.9 ± 0.01 h
- AUC0–t ([2]; CYP2C19 EM, Whites): 635.5 ± 259.7 ng·h/mL
- T1/2 ([2]; CYP2C19 PM, Caucasians): 2.68 ± 0.3 h
- Cmax ([2]; CYP2C19 PM, East Asians (so in the source)): 538.6 ± 33.5 ng/mL
- Cmax ([2]; CYP2C19 PM, Japanese): 1070.2 ± 185.3 ng/mL
- T1/2 ([2]; CYP2C19 PM, Japanese): 2.41 ± 0.15 h
- T1/2 ([2]; CYP2C19 PM, West Asians): 2.42 ± 0.18 h
